Earlier results as cited in paper PMC4183665 (2014).
Entries after “also recorded” stand apart in the source; their conditions may differ.

What was measured:
[1] = system: dipeptidyl peptidase-4 (DPP-4)

For H-HAEGTFTSDVSSYLEGQAAKEFIAWLVKGRG-NH2, the cleaved bond (neprilysin (NEP 24.11)) is listed as “cleaves after Ser18; also recorded: cleaves after Tyr19; also recorded: cleaves after Glu27; also recorded: cleaves after Phe28” and the cleaved bond [1] is listed as “cleaves after Ala8”.
